Activity calls are given as the source filed them. The rule behind the calls is not given here.
Experiments:
Type in all cases: functional, organism-based
Settings in all cases: Cercopithecidae
[1] = system: Monkey; assay: Compound was tested for activity in rhesus monkey behavioral test; Inactive
[2] = system: Monkey; assay: Compound was tested for activity in rhesus monkey behavioral test; Minimal activity
[3] = system: Monkey; assay: Compound was tested for activity in rhesus monkey behavioral test; Active

## CCCCCc1cc(O)c2c(c1)OC(C)(C)C1C=C[C@H](C)CC21 (stereo partly specified)
[1]
  Activity: inactive

## CCCCCc1cc(O)c2c(c1)OC(C)(C)C1CC[C@@H](C)CC21 (stereo partly specified)
[2]
  Activity: Minimal activity

## CCCCCc1cc(O)c2c(c1)OC(C)(C)[C@@H]1CCC(C)=C[C@@H]21
[3]
  Activity: Active

## CCCCCc1cc(O)c2c(c1)OC(C)(C)C1CC[C@H](C)CC21 (stereo partly specified)
[3]
  Activity: Active

## CCCCCc1cc(O)c2c(c1)OC(C)(C)[C@@H]1CC=C(C)C[C@@H]21
[3]
  Activity: Active

## C=C1CCC2C(C1)c1c(O)cc(CCCCC)cc1OC2(C)C (stereo unspecified)
[1]
  Activity: inactive

From ChEMBL document CHEMBL1124537, “The importance of the orientation of the C9 substituent to cannabinoid activity” (J Med Chem, 1989)
